In the Kinase Knowledgebase extract (Sharma et al. 2016):

Target: MAPK14 (human) (UniProt Q16539)
Test: Inhibition of LPS Stimulated TNF-alpha Production in THP-1 Cells
Details: thp1

Chain of MAPK14 (human) (Q16539 whole entry, looked up): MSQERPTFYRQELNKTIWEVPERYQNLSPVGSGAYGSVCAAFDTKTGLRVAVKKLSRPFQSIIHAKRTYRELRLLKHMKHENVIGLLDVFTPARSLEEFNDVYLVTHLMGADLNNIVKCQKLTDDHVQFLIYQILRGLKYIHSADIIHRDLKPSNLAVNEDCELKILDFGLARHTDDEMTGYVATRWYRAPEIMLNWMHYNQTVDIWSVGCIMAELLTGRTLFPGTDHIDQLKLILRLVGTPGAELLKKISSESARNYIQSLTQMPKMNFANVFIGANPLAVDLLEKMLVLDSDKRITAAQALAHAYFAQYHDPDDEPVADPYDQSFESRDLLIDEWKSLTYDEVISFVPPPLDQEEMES

Compound	IC50
CCc1nc(-c2cccc(Cl)c2)c(-c2ccnc(NC3CCCCC3)c2)s1	55 nM
CCC(=O)Nc1cc(-c2sc(-c3ccc(S(C)(=O)=O)cc3)nc2-c2cccc(Cl)c2)ccn1	21 nM
Cc1cccc(-c2nc(N)sc2-c2ccncc2)c1	46 nM
CNc1nc(-c2ccc(OC)cc2)c(-c2ccncc2)s1	140 nM
Cc1cc(C)cc(-c2nc(N)sc2-c2ccnc(NC(=O)c3ccccc3)c2)c1	20 nM
Cc1cccc(-c2nc(N(C)C(=O)c3ccc(C)nc3)sc2-c2ccnc(NC3CCCC3)c2)c1	82 nM
COc1ccc(-c2nc(N)sc2-c2ccnc(NC(=O)c3ccccc3)c2)cc1	14 nM
CCc1nc(-c2ccc(Cl)cc2)c(-c2ccnc(NC(=O)c3ccccc3)c2)s1	15 nM
Cc1cc(C)cc(-c2nc(N)sc2-c2ccnc(NCc3ccccc3)c2)c1	140 nM
CNc1nc(-c2ccc(Cl)cc2)c(-c2ccncc2)s1	180 nM
CCc1nc(-c2cccc(C)c2)c(-c2ccnc(NC(=O)c3ccsc3)c2)s1	5.9 nM
CCCc1nc(-c2cccc(C)c2)c(-c2ccnc(N)c2)s1	2 nM
COc1ccc(-c2nc(NC(=O)c3cccnc3)sc2-c2ccnc(NC(=O)c3cccnc3)c2)cc1	26 nM
CCc1nc(-c2cccc(Cl)c2)c(-c2ccnc(NC(C)=O)c2)s1	120 nM
CCc1nc(-c2cccc(Cl)c2)c(-c2ccnc(N[C@@H](C)c3ccccc3)c2)s1	57 nM
